Experimental findings from patent US10688142B2, “Methods of treatment using a lipid extract of Passiflora seeds concentrated in its unsaponifiable fraction” (Laboratoires Expanscience, priority 2013, dated 2020) are described below.

What all share (type): cell-based
One test deals with human mature adipocytes. As to the kind of experiment: Lipolysis: release of glycerol by encapsulated mature adipocytes. The settings on record: 10 μM forskoline, 4 hours. The protocol: Human white adipose tissue carries out a fundamental metabolic function by providing the other tissues in the body with energy molecules in the form of fatty acids released by the adipocyte lipolysis process: adipocytes mobilise energy reserves by hydrolysing stored triglycerides to fatty acids and glycerol; the fatty acids thus released into the bloodstream can be used by other tissues for energy purposes. The effect of the Passiflora concentrate on adipocyte lipolysis was evaluated by assay of glycerol released during hydrolysis of the triglycerides stored in human mature adipocytes cultured in 3 dimensions.
Mature adipocytes, derived from biopsies of subcutaneous adipose tissue taken from five donors (normal-weight or overweight) were isolated and encapsulated in peptide gel allowing their survival and biological functionality in culture. The encapsulated mature adipocytes were incubated in the presence of 0.001% or 0.005% Passiflora concentrate, or 10 μM forskoline (standard) for 4 hours.
After incubation, the released glycerol was assayed in the culture medium using an assay kit (Randox), the values obtained were normalised with the amount of DNA evaluated with a kit (Invitrogen).

In another test the test system is collagen I. The test can be described thus: Expression of dermal matrix components in normal human fibroblasts, real-time quantitative RT-PCR. The settings on record: TGFβ1 at 5 ng/ml, 24 hours. As to the method:
(§1) Normal human dermal fibroblasts were incubated for 24 hours in 1 FCS culture medium in the presence of 0.005% and 0.05% Passiflora concentrate or TGFβ1 at 5 ng/ml (standard). After incubation, the total RNAs were extracted, assayed and retro-transcribed. The gene expression of collagen I and elastin were analysed by real-time quantitative RT-PCR.

The test system of the next test is elastin. The description is as above. The settings on record: TGFβ1 at 5 ng/ml, 24 hours. As to the method: as §1

Marks after values point to notes of the source that are not given here.

Take `C=C[C@@]1(C)CC(=O)[C@]2(O)[C@@]3(C)[C@@H](O)CCC(C)(C)[C@@H]3[C@H](O)[C@H](OC(C)=O)[C@@]2(C)O1` [Forskoline, forskoline]: the “Stimulation (%) of glycerol release” value in the test with human mature adipocytes is listed as “+660% **”. The compound also returned a Release of glycerol in the test on human mature adipocytes (mean of 5 donors, control 1.00) of 6.60 Arbitrary unit.
As to “TGFβ1: TGFβ1 at 5 ng/ml (standard) in the dermal matrix gene expression test”, the “Collagen I gene expression, percentage increase relative to non-treated control” value in the test on collagen I is “+30% ns^”. Also, the “Collagen I (Relative Quantity)” value in the test with collagen I (control = 1.00) is 1.30. In the test on elastin, the “Elastin gene expression, percentage increase relative to non-treated control” value is reported as “+40% *”. Further, the “Elastin (Relative Quantity)” value with elastin (control = 1.00) is recorded as 1.40.
